The values that follow come from PubChem BioAssay AID698 (NMMLSC, 2007).

Active and inactive are the calls of the source. The rule behind the calls is not given here.

The assay deals with N-formyl peptide receptor 2 (Homo sapiens) (UniProt P25090). The assay can be described thus: inhibition of ligand-evoked FPRL1 calcium flux – cell-based, calcium response, confirmation (AID 698). The settings on record: FPRL1-expressing cells, ligand-induced calcium response, antagonist mode; hits give high values; concentration not given here.
N-formyl peptide receptor 2 (Homo sapiens), sequence (P25090 whole entry, looked up): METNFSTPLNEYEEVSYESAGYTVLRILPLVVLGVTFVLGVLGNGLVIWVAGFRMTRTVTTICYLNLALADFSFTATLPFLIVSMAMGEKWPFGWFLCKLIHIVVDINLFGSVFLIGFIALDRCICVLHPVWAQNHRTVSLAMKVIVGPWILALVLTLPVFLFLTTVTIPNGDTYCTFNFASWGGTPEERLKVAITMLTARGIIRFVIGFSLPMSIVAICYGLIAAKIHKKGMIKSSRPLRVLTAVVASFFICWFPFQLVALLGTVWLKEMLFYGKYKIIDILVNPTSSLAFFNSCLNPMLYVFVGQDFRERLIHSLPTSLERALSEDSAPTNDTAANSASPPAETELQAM

The term inhibition denotes the change of the read-out against control, counted positive when it falls. `CC(=O)OCCNc1cc(N2CCN(C)CC2)c2noc3c2c1C(=O)c1ccccc1-3`: the inhibition was 93.4%.

For the molecule `COc1ccc(-c2cn3cccnc3n2)cc1NC(=O)C1CC1`, the inhibition was 98.1%.

On to `CCOC(=O)CSc1nnc(CNC(=O)c2cc(OCC)c(OCC)c(OCC)c2)n1C`, for which the inhibition was 0% (inactive).

Regarding `O=C(O)CCCNc1cc(N2CCC3(CC2)OCCO3)c2noc3c2c1C(=O)c1ccccc1-3`, the inhibition is 0% (inactive).

On to `CCOc1cc(C(=O)NCc2nnc(SCC(=O)OC)n2C)cc(OCC)c1OCC`, for which the inhibition is 0% (inactive).

Turning to `COc1ccc(-c2cc(C(F)(F)F)nc(N3CCN(Cc4ccccc4)CC3)n2)cc1OC`, the inhibition was 96.3%.

Regarding `Nc1ccc(Nc2ccccc2N)cc1`, the inhibition was 69.5% (inactive).
